# Data taken from patent US20260144875A1, “COMPOSITIONS AND METHODS FOR CROSSLINKING STRUCTURAL PROTEINS” (ADS Therapeutics LLC, priority 2022, published 2026).
# Columns and labels:
# [1] = Saturated aqueous solubility of RTB in PBS with or without HP-β-CD, HPLC; assay type: physicochemical
# Description: Solubility of riboflavin tetrabutyrate (RTB) was tested in PBS solution, with or without 10% hydroxypropyl-beta-cyclodextrin (HP-β-CD) as solubilizer, at varying pH. For each formulation, 5 mg of RTB was added to 5 mL of pH-adjusted PBS containing 10% HP-β-CD at 25° C., and mixed well. Solubility was analyzed as in Example 1a.
# [2] = Impurities from riboflavin tetrabutyrate in aqueous solution; assay type: physicochemical; conditions: PBS
# Description: The impurities present in PBS solutions, with or without 10% hydroxy-propyl-beta-cyclodextrin (HP-β-CD) as solubilizer, at varying pH, with riboflavin tetrabutyrate (RTB) was investigated. Using similar sample analysis methods described in Examples 1a-1c, the impurities were determined.
# [3] = Sample YA1, HP-β-CD 10%, pH 5.0
# [4] = Sample YA2, HP-β-CD 10%, pH 6.0
# [5] = Sample YA3, HP-β-CD 10%, pH 7.0
# [6] = Sample YA4, without HP-β-CD, pH 5.0
# [7] = Sample YA5, without HP-β-CD, pH 6.0
# [8] = Sample YA6, without HP-β-CD, pH 7.0
compound,measurement,setting,value
"CCCC(=O)OC[C@@H](OC(=O)CCC)[C@@H](OC(=O)CCC)[C@H](Cn1c2nc(=O)[nH]c(=O)c-2nc2cc(C)c(C)cc21)OC(=O)CCC [RTB, (2R,3S,4S)-5-(7,8-dimethyl-2,4-dioxo-3,4-dihydrobenzo[g]pteridin-10(2H)-yl) pentane-1,2,3,4-tetrayl tetrabutyrate]",Solubility,"[1]; Sample C1, 25° C., HP-β-CD 10%, pH 5.0",8 ng/mL
same,Solubility,"[1]; Sample C2, 25° C., HP-β-CD 10%, pH 5.5",3 ng/mL
same,Solubility,"[1]; Sample C3, 25° C., HP-β-CD 10%, pH 6.0",4 ng/mL
same,Solubility,"[1]; Sample C4, 25° C., without HP-β-CD, pH 5.0",8 ng/mL
same,Solubility,"[1]; Sample C5, 25° C., without HP-β-CD, pH 5.5",1 ng/mL
same,Solubility,"[1]; Sample C6, 25° C., without HP-β-CD, pH 6.0",2 ng/mL
same,Other Impurities,[2]; [3],2.94%
same,Riboflavin,[2]; [3],0%
same,Riboflavin Tetrabutyrate,[2]; [3],96.28%
same,Other Impurities,[2]; [4],10.65%
same,Riboflavin,[2]; [4],2.45%
same,Riboflavin Tetrabutyrate,[2]; [4],87.2%
same,Other Impurities,[2]; [5],9.39%
same,Riboflavin,[2]; [5],2.03%
same,Riboflavin Tetrabutyrate,[2]; [5],88.58%
same,Other Impurities,[2]; [6],22.54%
same,Riboflavin,[2]; [6],7.24%
same,Riboflavin Tetrabutyrate,[2]; [6],70.22%
same,Other Impurities,[2]; [7],20.58%
same,Riboflavin,[2]; [7],7.52%
same,Riboflavin Tetrabutyrate,[2]; [7],71.90%
same,Other Impurities,[2]; [8],19.8%
same,Riboflavin,[2]; [8],8.92%
same,Riboflavin Tetrabutyrate,[2]; [8],71.30%
